Data: patent US9066517B2, “Pest control agents for honeybee parasitic pests, and pest control method for honeybee parasitic pests using the pest control agents” (MEIJI SEIKA PHARMA CO., LTD., priority 2013, dated 2015)

Legend:
Format in all cases: in vivo
[1] = test system: Apis mellifera; assay: Test Example 2: mortality of honeybees after dipping the abdomens; settings: rate 10 ppm, abdomens dipped into acetone solution, adult Apis mellifera
Description: (§1) After anesthesized with carbonic acid gas, adults of Apis mellifera collected from a hive were grouped in test cages such that there were 10 to 20 heads per cage. Thereafter, the Apis mellifera were subjected to a chemical treatment by dipping the abdomens into an acetone solution of the compound according to the present invention at predetermined concentrations. After the Apis mellifera air-dried, the recovery of the Apis mellifera from the anesthesia was confirmed. Then, the cages were lidded to leave the Apis mellifera to stand in a thermostatic chamber under dark at 25° C. Note that 50% sucrose water absorbed to absorbent cotton was provided as a bait during the test period.
(§2) The number of Apis mellifera survived at 72 hours after the chemical treatment as well as the numbers of Varroa destructor parasitizing the Apis mellifera before the chemical treatment and at 72 hours after the chemical treatment were examined. The mortality and the parasitism rate were calculated by the following equations. The test was conducted in duplicate. Mortality(%)={((100−survival rate in chemical treated plot)−(100−survival rate in acetone treated plot))/(100−mortalityin acetone treated plot)}×100 Parasitism rate(%)=(number of heads of honeybees parasitized by Varroa destructor/number of honeybees survived)×100

[2] = test system: Varroa destructor; assay: Test Example 2: pest control test of Varroa destructor, parasitism rate; settings: for Parasitism rate before treatment (%): rate 10 ppm group, before chemical treatment (baseline); for Parasitism rate at 72 hours after treatment (%) / Change in parasitism rate (%)*: rate 10 ppm; for Parasitism rate at 72 hours after treatment (%): abdomens dipped; for Change in parasitism rate (%)*: {100 − (parasitism rate at 72 hours after treatment/parasitism rate before treatment) × 100}
Description: as §1, §2

[3] = test system: Varroa destructor; assay: Test Example 1: pest control test of Varroa destructor, preventive value; settings: application dose 10 μg, Varroa destructor on adult Apis mellifera, 48 hours after treatment
Experimental: (§3) After anesthesized with carbonic acid gas, adults of Apis mellifera infected with Varroa destructor were subjected to a chemical treatment by applying the abdomens with an acetone solution of the compound according to the present invention at predetermined concentrations using a micro applicator. After the treatment, Apis mellifera were transferred into a plastic case and left to stand in a thermostatic chamber under dark at 25° C. During the test period, 50% sucrose water absorbed to absorbent cotton was provided as a bait.
(§4) Forty eight hours after the chemical treatment, the number of Apis mellifera survived and the number of parasitic Varroa destructor were examined. The mortality of the honeybees and the preventive value against Varroa destructor were calculated by the following equations. Mortality(%)={((100−survival rate in chemical treated plot)−(100−survival rate in acetone treated plot))/(100−mortality in acetone treated plot)}×100 Preventive value={(parasitism rate in untreated plot−parasitism rate in chemical treated plot)/(parasitism rate in untreated plot)}×100

[4] = test system: Apis mellifera; assay: Test Example 1: mortality of honeybees after topical application (micro applicator); settings: acetone solution applied to abdomens of adult Apis mellifera infected with Varroa destructor, 48 hours after treatment
Experimental: as §3, §4

Structure (SMILES) | Mortality at 72 hours after treatment (%) [1] [%] | Parasitism rate before treatment (%) [2] [%] | Parasitism rate at 72 hours after treatment (%) [2] [%] | Change in parasitism rate (%)* [2] [%] | Preventive value [3] | Mortality (%) ([4]; application dose 10 μg) | Mortality (%) ([4]; application dose 5 μg)
FC(F)(F)C(=S)N=c1ccccn1Cc1ccc(Cl)nc1 [Compound 1-20, N-[1-((6-chloropyridin-3-yl)methyl)pyridin-2(1H)-ylidene]-2,2,2-trifluoroethanethioamide] | 0 | 51 | 23 | −55 |  |  | 
O=C(N=c1ccccn1Cc1ccc(Cl)nc1)C(F)(F)F [Compound P212, N-[1-((6-chloropyridin-3-yl)methyl)pyridin-2(1H)-ylidene]-2,2,2-trifluoroacetamide] | 0 | 17 | 10 | −41 | 100 | 0 | 
CC(C)[C@H](Nc1ccc(C(F)(F)F)cc1Cl)C(=O)OC(C#N)c1cccc(Oc2ccccc2)c1 (some centres unmarked) [Fluvalinate, reference compound] |  |  |  |  |  |  | 64
